Consider 22 molecules from patent US5620675A, “Radioactive peptides” (Diatech, Inc., priority 1993, dated 1997).

Starred links: 1 amine or outer side, 2 acyl side, 3 side chain; linkers in the order of their positions; H or OH if unused. Non-standard residues stand in square brackets, D forms with d. Residues, ends and D or L forms follow the SMILES beside them. *: point of attachment. DTPA = O=C(O)CN(CCN(CC(=O)O)CC(=O)O)CCN(CC(=O)O)CC(=O)*; Phe(4-Cl) = N[C@@H](Cc1ccc(Cl)cc1)C(=O)O; X4 = CC(C)(S)CNCCN(CCCCC(=O)*)CC(C)(C)S; 2Nal = N[C@@H](Cc1ccc2ccccc2c1)C(=O)O; d2Nal = N[C@H](Cc1ccc2ccccc2c1)C(=O)O; εLys = N[C@@H](CCCCN[*:1])C(=O)[*:2]; Acm = CC(=O)NC*

The target in the assay is T1, somatostatin receptor (Rattus norvegicus, UniProt P30680).
T1 construct: endogenous in cells; host or cells: AR42J rat pancreatic tumor cell line (membrane preparation)
T1 sequence (P30680 whole entry): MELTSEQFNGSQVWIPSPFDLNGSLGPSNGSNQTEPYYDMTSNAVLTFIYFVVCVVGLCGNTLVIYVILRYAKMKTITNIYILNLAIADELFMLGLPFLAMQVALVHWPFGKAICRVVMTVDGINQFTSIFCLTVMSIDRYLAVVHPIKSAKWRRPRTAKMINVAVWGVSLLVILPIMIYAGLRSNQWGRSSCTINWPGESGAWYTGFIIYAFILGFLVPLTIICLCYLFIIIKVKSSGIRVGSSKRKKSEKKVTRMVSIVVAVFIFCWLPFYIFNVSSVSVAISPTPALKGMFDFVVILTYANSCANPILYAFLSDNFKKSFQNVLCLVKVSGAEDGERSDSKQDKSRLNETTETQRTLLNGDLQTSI
In words: Inhibition of binding of [125I-Tyr11]somatostatin-14 to AR42J rat pancreatic tumor cell membranes. The conditions noted are these: inhibition constant; displacement of 0.5 nM [125I-Tyr11]somatostatin-14 from AR42J cell membranes, 25 min at 30° C; free peptides and [Re=O]-complexed peptides. As for the experimental part: Inhibition of Binding of [^125 I-Tyr^11 ]somatostatin-14 to AR42J Rat Pancreatic Tumor Cell Membranes
The rat pancreatic tumor cell line AR42J which expresses the somatostatin receptor was cultured in Dulbecco's minimal essential media (DMEM) supplemented with 10% fetal bovine serum (FBS) and 8 mM glutamine in a humdified 5% CO2 atmosphere at 37° C. in T-flasks. Harvested cells were homogenized in cold 50 mM Tris-HCl buffer (pH 7.4) and the homogenate then centrifuged at 39,000 g for 10 min at 4° C. Pellets were washed once with buffer and then resuspended in an ice-cold solution of 10 mM Tris-HCl (pH 7.4). Equal aliquots of this cell membrane preparation were incubated with [^125 I-Tyr^11 ]somatostatin-14 (at a final concentration of 0.5nM and 750,000 cpm/mL, at a specific activity of 2000 Ci/mmol, Amersham, Arlington Heights, Ill.) and peptide at a final concentration of from 10^-11 M to 10^-6 M in a solution of 50 mM HEPES (pH 7.4) containing 1% bovine serum albumin (BSA), 5 mM MgCl2, Trasylol (200,000 International Units), bacitracin (0.02 mg/mL) and phenylmethylsulfonylfluoride (0.02 mg/mL) for 25 min at 30° C. Using a filtration manifold, this mixture was filtered through a polyethyleneimine-washed GC/F filter (Whatman, Maidstone, England), and the residue remaining on the filter wastled thrice with 5 mL cold HEPES buffer. The filter and a sample of the filter washings were then counted in a gamma counter. To assess non-specific binding, the assay was performed in the presence of unlabeled somatostatin-14 at 200 nM. Data analysis including Hill plots of the data provided inhibition constants (see Bylund & Yamamura, "Methods of receptor binding", in Methods in Neurotransmitter Receptor Analysis, Yamamura et al., eds., Raven Press: New York, 1990).
Ac.FD FYWD KTFGGG(ε-K)KC.amide gave an inhibitory constant (Ki) of 6.1 nM. As for `CC(=O)NCSC[C@H](NC(=O)CNC(=O)[C@H](CSCNC(C)=O)NC(=O)CNC(=O)CNC(=O)CNC(=O)[C@@H](NC(=O)[C@H](Cc1ccccc1)NC(=O)[C@@H](NC(=O)[C@H](CCCCN)NC(=O)[C@@H](Cc1c[nH]c2ccccc12)NC(=O)[C@H](Cc1ccc(O)cc1)NC(=O)[C@H](Cc1ccc(Cl)cc1)NC(=O)[C@H](N)Cc1ccccc1)[C@@H](C)O)[C@@H](C)O)C(N)=O` [FD.Cpa.YWD KTFT.GGGCAcm GCAcm.amide] (H-[dF][Phe(4-Cl)]Y[dW]KTFTGGGC(Acm)GC(Acm)-NH2), affinity was put at a Ki of 2.4 nM. `CSC[C@H](NC(=O)[C@@H](NC(=O)[C@H](CCCCN)NC(=O)[C@@H](Cc1c[nH]c2ccccc12)NC(=O)[C@H](Cc1ccc(O)cc1)NC(=O)[C@H](CSC)NC(=O)[C@@H](Cc1ccc2ccccc2c1)NC(=O)[C@@H](N)CCCCNC(=O)CCCCN(CCNCC(C)(C)S)CC(C)(C)S)C(C)C)C(=O)N[C@H](C(N)=O)[C@@H](C)O` [K.[BAT].D-Nal.CMe YWD KVCMe T.amide, K(BAT).D-Nal.CMe YWD KVCMe T.amide] (H-K(X4)[d2Nal]C(Me)Y[dW]KVC(Me)T-NH2; N-terminus assumed) showed a Ki of 9.9 nM. The molecule FD.Cpa.YWD KTFT(ε-K)GC.amide showed an inhibitory constant (Ki) of 0.36 nM. Compared with the last molecule, the Ki is about 28-fold lower.

Regarding maGGGFD.Cpa.YWD KTFT.amide, the affinity corresponds to a Ki of 0.97 nM. In turn, `CC(=O)N[C@H](Cc1ccccc1)C(=O)N[C@@H](Cc1ccccc1)C(=O)N[C@@H](Cc1ccc(O)cc1)C(=O)N[C@H](Cc1c[nH]c2ccccc12)C(=O)N[C@@H](CCCCN)C(=O)N[C@H](C(=O)N[C@@H](Cc1ccccc1)C(=O)N[C@H](C(=O)NCC(=O)NCC(=O)NCC(=O)NCCCC[C@H](N)C(=O)NCC(=O)N[C@@H](CS)C(N)=O)[C@@H](C)O)[C@@H](C)O` [Ac.FD FYWD KTFTGGG(ε-K)GC.amide] (Ac-[dF]FY[dW]KTFTGGG[εLys]GC-NH2) came in with a Ki of 8.2 nM. Molecule “FD.CPa.YWD KTFTCGC.amide (not fully specified; Re=O complex; FD.CPa.YWD prefix; C-terminal amide)” returned a Ki of 0.37 nM.

The molecule Ac.FD FYWD KTFTGGG(ε-K)GC.amide gave a Ki of 8.1 nM.

Turning to `C[C@@H](O)[C@H](NC(=O)[C@H](Cc1ccccc1)NC(=O)[C@@H](NC(=O)[C@H](CCCCN)NC(=O)[C@@H](Cc1c[nH]c2ccccc12)NC(=O)[C@H](Cc1ccc(O)cc1)NC(=O)[C@H](Cc1ccccc1)NC(=O)[C@@H](Cc1ccccc1)NC(=O)[C@H](CS)NC(=O)CNC(=O)[C@@H](N)CCCCNC(=O)CN(CCN(CCN(CC(=O)O)CC(=O)O)CC(=O)O)CC(=O)O)[C@@H](C)O)C(N)=O` [[DTPA].(ε-K)GCFD.FYWD KTFT.amide] (H-K(DTPA)GC[dF]FY[dW]KTFT-NH2), the affinity corresponds to a Ki of 3.3 nM. The molecule Ac.CGCFD.Cpa.YWD KTFT.amide registered an inhibitory constant (Ki) of 4.1 nM. Take `C[C@@H](O)[C@H](NC(=O)[C@H](Cc1ccccc1)NC(=O)[C@@H](NC(=O)[C@H](CCCCN)NC(=O)[C@@H](Cc1c[nH]c2ccccc12)NC(=O)[C@H](Cc1ccc(O)cc1)NC(=O)[C@H](Cc1ccc(Cl)cc1)NC(=O)[C@@H](Cc1ccc2ccccc2c1)NC(=O)CN(CCN(CCN(CC(=O)O)CC(=O)O)CC(=O)O)CC(=O)O)[C@@H](C)O)C(=O)NCCCC[C@H](N)C(=O)NCC(=O)N[C@@H](CS)C(=O)N[C@@H](CCCCN)C(=O)N[C@@H](CCCCN)C(N)=O` [[DTPA].D-Nal.Cpa.YWD KTFT(ε-K)GCKK.amide] ({DTPA}-[d2Nal][Phe(4-Cl)]Y[dW]KTFT[εLys]GCKK-NH2): the affinity corresponds to a Ki of 1.3 nM. As to [DTPA].FD.Cpa.YWD KTFT(ε-K)GC.amide, the affinity, expressed as Ki, was 0.027 nM. To `CC(=O)NCSC[C@H](NC(=O)CNC(=O)[C@H](CSCNC(C)=O)NC(=O)[C@@H](NC(=O)[C@H](Cc1ccccc1)NC(=O)[C@@H](NC(=O)[C@H](CCCCN)NC(=O)[C@@H](Cc1c[nH]c2ccccc12)NC(=O)[C@H](Cc1ccc(O)cc1)NC(=O)[C@H](Cc1ccc(Cl)cc1)NC(=O)[C@H](N)Cc1ccccc1)[C@@H](C)O)[C@@H](C)O)C(N)=O` [FD.CPa.YWD KTFTCAcm GCAcm.amide, FD.Cpa.YWD KTFTCAcm GCAcm.amide] (H-[dF][Phe(4-Cl)]Y[dW]KTFTC(Acm)GC(Acm)-NH2) belongs 0.85 nM; to `CC(=O)NCSC[C@H](NC(C)=O)C(=O)NCC(=O)N[C@@H](CSCNC(C)=O)C(=O)N[C@H](Cc1ccccc1)C(=O)N[C@@H](Cc1ccc(Cl)cc1)C(=O)N[C@@H](Cc1ccc(O)cc1)C(=O)N[C@H](Cc1c[nH]c2ccccc12)C(=O)N[C@@H](CCCCN)C(=O)N[C@H](C(=O)N[C@@H](Cc1ccccc1)C(=O)N[C@H](C(N)=O)[C@@H](C)O)[C@@H](C)O` [Ac.CAcm GCAcm FD.CPa.YWD KTFT.amide, Ac.CAcm GCAcm FD.Cpa.YWD KTFT.amide] (Ac-C(Acm)GC(Acm)[dF][Phe(4-Cl)]Y[dW]KTFT-NH2), 0.73 nM.

Molecule [DTPA].Aca.FD.Cpa.YWD KTFT(ε-K)GC.amide yielded a Ki of 8.2 nM. Compared with the last molecule, the Ki is about 11-fold higher.

In turn, [DTPA].D-Nal.Cpa.YWD KTFT(ε-K)GC.amide registered a Ki of 0.007 nM. Consider `CC(=O)N[C@@H](CS)C(=O)NCC(=O)N[C@@H](CS)C(=O)N[C@H](Cc1ccccc1)C(=O)N[C@@H](Cc1ccc(Cl)cc1)C(=O)N[C@@H](Cc1ccc(O)cc1)C(=O)N[C@H](Cc1c[nH]c2ccccc12)C(=O)N[C@@H](CCCCN)C(=O)N[C@H](C(=O)N[C@@H](Cc1ccccc1)C(=O)N[C@H](C(N)=O)[C@@H](C)O)[C@@H](C)O` [Ac.CGCFD.Cpa.YWD KTFT.amide] (Ac-CGC[dF][Phe(4-Cl)]Y[dW]KTFT-NH2), for which the Ki was 4.4 nM. Then `C[C@@H](O)[C@H](NC(=O)[C@H](CCCCN)NC(=O)[C@@H](Cc1c[nH]c2ccccc12)NC(=O)[C@H](Cc1ccc(O)cc1)NC(=O)[C@H](Cc1ccc(Cl)cc1)NC(=O)[C@H](N)Cc1ccccc1)C(=O)N[C@@H](CS)C(=O)N[C@@H](Cc1ccc2ccccc2c1)C(N)=O` [FD.Cpa.YWD KTC.Nal.amide] (H-[dF][Phe(4-Cl)]Y[dW]KTC[2Nal]-NH2), with 8.2 nM; and AKCGGGFD FYWD KTFT.amide, with 2.9 nM. Then FD.Cpa.YWD K.Abu.Nal.T(ε-K)GC.amide, with 3.3 nM; and Ac.FD FYWD KTFT(ε-K)GC.amide, with 1.5 nM. As to AKCGGGFD.Cpa.YWD KTFT.amide, the inhibition constant Ki worked out at 0.76 nM.

Usually Ki stands for a dissociation constant, usually derived from enzyme kinetics or from competition with a known ligand. Read a high Ki as weaker binding.
